pEC50: −log10 of the molar value. The source made the active and inactive calls. The rule behind the calls is not given here.
Legend:
Leishmania major [1] = experiment: Anti-leishmanial activity against Leishmania major MHOM/JL/80/ Friedlin promastigotes incubated for 72 hrs at 28 degC; format: functional, organism-based
Leishmania donovani [2] = experiment: Anti-leishmanial activity against Leishmania donovani MHOM/IND/80/Dd8 promastigotes incubated for 72 hrs at 28 degC; format: functional, organism-based; settings: MHOM/IND/80/Dd8, 72 h
Leishmania major [3] = experiment: Anti-leishmanial activity against Leishmania major MHOM/JL/80/ Friedlin amastigotes infected in human THP1 cells incubated for 72 hrs at 37 degC by DAPI staining based assay; format: functional, organism-based; settings: THP-1, 72 h
Leishmania donovani [4] = experiment: Anti-leishmanial activity against Leishmania donovani MHOM/IND/80/Dd8 amastigotes infected in human THP1 cells incubated for 72 hrs at 37 degC by DAPI staining based assay; format: functional, organism-based; settings: MHOM/IND/80/Dd8, THP-1, 72 h
[5] = Selectivity index, ratio of EC50 for human THP1 cells to EC50 for Leishmania major MHOM/JL/80/ Friedlin amastigotes infected in human THP1 cells; format: toxicity, cell-based, THP-1; settings: read-out: Ratio EC50
[6] = Selectivity index, ratio of EC50 for human THP1 cells to EC50 for Leishmania donovani MHOM/IND/80/Dd8 amastigotes infected in human THP1 cells; format: toxicity, cell-based, THP-1; settings: read-out: Ratio EC50
THP-1 = experiment: Cytotoxicity against human THP1 cells after 48 hrs by MTT assay; format: cell-based; settings: THP-1, 48 h
Leishmania donovani [7] = experiment: Anti-leishmanial activity against Leishmania donovani MHOM/IND/80/Dd8 promastigotes expressing pXG empty vector incubated for 72 hrs at 28 degC; format: functional, organism-based; settings: MHOM/IND/80/Dd8, 72 h
Leishmania donovani [8] = experiment: Anti-leishmanial activity against Leishmania donovani MHOM/IND/80/Dd8 promastigotes expressing pXG-CEK incubated for 72 hrs at 28 degC; format: functional, organism-based; settings: MHOM/IND/80/Dd8, 72 h
Leishmania donovani [9] = experiment: Anti-leishmanial activity against Leishmania donovani MHOM/IND/80/Dd8 promastigotes expressing pXG-EK incubated for 72 hrs at 28 degC; format: functional, organism-based; settings: MHOM/IND/80/Dd8, 72 h
Leishmania donovani [10] = experiment: Anti-leishmanial activity against Leishmania donovani MHOM/IND/80/Dd8 amastigotes expressing pXG empty vector infected in human THP1 cells incubated for 72 hrs at 37 degC; format: functional, organism-based; settings: MHOM/IND/80/Dd8, THP-1, 72 h
Leishmania donovani [11] = experiment: Anti-leishmanial activity against Leishmania donovani MHOM/IND/80/Dd8 amastigotes expressing pXG-CEK infected in human THP1 cells incubated for 72 hrs at 37 degC; format: functional, organism-based; settings: MHOM/IND/80/Dd8, THP-1, 72 h
Leishmania donovani [12] = experiment: Anti-leishmanial activity against Leishmania donovani MHOM/IND/80/Dd8 amastigotes expressing pXG-EK infected in human THP1 cells incubated for 72 hrs at 37 degC; format: functional, organism-based; settings: MHOM/IND/80/Dd8, THP-1, 72 h
Leishmania donovani [13] = experiment: Anti-leishmanial activity against Leishmania donovani MHOM/IND/80/Dd8 promastigotes incubated for 72 hrs at 28 degC in presence of 10 mM choline; format: functional, organism-based; settings: MHOM/IND/80/Dd8, 72 h
Leishmania donovani [14] = experiment: Anti-leishmanial activity against Leishmania donovani MHOM/IND/80/Dd8 promastigotes incubated for 72 hrs at 28 degC in presence of 10 mM ethanolamine; format: functional, organism-based; settings: MHOM/IND/80/Dd8, 72 h
Leishmania major [15] = experiment: Reduction in ATP level in Leishmania major MHOM/JL/80/ Friedlin promastigotes at 0.2 uM after 1 hr by cell-titer-Glo luminescence assay; format: functional
Leishmania major [16] = experiment: Reduction in ATP level in Leishmania major MHOM/JL/80/ Friedlin promastigotes at 0.2 uM measured up to 3 hrs by cell-titer-Glo luminescence assay; format: functional, organism-based
Leishmania donovani [17] = experiment: Reduction in ATP level in Leishmania donovani MHOM/IND/80/Dd8 promastigotes at 30 uM after 3 hrs by cell-titer-Glo luminescence assay; format: functional, organism-based
Leishmania major [18] = experiment: Effect on mitochondrial membrane potential in Leishmania major MHOM/JL/80/ Friedlin promastigotes at 0.2 uM after 1 hr by […] dye based fluorescence assay; format: functional, organism-based
Leishmania donovani [19] = experiment: Effect on mitochondrial membrane potential in Leishmania donovani MHOM/IND/80/Dd8 promastigotes at 30 uM after 3 hrs by […] dye based fluorescence assay; format: functional, organism-based
Leishmania donovani [20] = experiment: Induction of plasma membrane depolarization in Leishmania donovani MHOM/IND/80/Dd8 promastigotes at 30 uM after 3 hrs by […] dye based fluorescence assay; format: functional, organism-based
Leishmania major [21] = experiment: Induction of plasma membrane depolarization in Leishmania major MHOM/JL/80/ Friedlin promastigotes at 0.2 uM after 1 hr by […] dye based fluorescence assay; format: functional, organism-based
Leishmania major [22] = experiment: Reduction in ATP level in Leishmania major MHOM/JL/80/ Friedlin promastigotes at 30 uM after 3 hrs by cell-titer-Glo luminescence assay; format: functional
[23] = Selectivity index, ratio of EC50 for Leishmania donovani MHOM/IND/80/Dd8 promastigotes to EC50 for Leishmania major MHOM/JL/80/ Friedlin promastigotes; format: functional

Row | Compound | pEC50 (Leishmania major [1]) | pEC50 (Leishmania donovani [2]) | pEC50 (Leishmania major [3]) | pEC50 (Leishmania donovani [4]) | selectivity ratio [5] | selectivity ratio [6] | pEC50 (THP-1) | further results
1 | c1cc2cc(c1)C[n+]1ccc(cc1)NCCOCCNc1cc[n+](cc1)C2 | 5.54 | 4.12 | 5.79 | 4.67 | 121 | 9.2 | 3.71 | 
2 | c1c[n+]2ccc1NCCOCCNc1cc[n+](cc1)CCCCC2 | 6.59 | 4.50 | 5.59 | 4.48 | 62.7 | 4.9 | 3.79 | 
3 | c1c[n+]2ccc1NCCCCCNc1cc[n+](cc1)CCCCC2 | 7.15 | 4.97 | 5.90 | 5.12 | 122 | 20.2 | 3.81 | pEC50 (Leishmania donovani [7]): 4.87; pEC50 (Leishmania donovani [8]): 4.94; pEC50 (Leishmania donovani [9]): 4.92; pEC50 (Leishmania donovani [10]): 5.05; pEC50 (Leishmania donovani [11]): 4.90; pEC50 (Leishmania donovani [12]): 4.98; pEC50 (Leishmania donovani [13]): 4.94; pEC50 (Leishmania donovani [14]): 4.92; inhibition at 0.2 µM (Leishmania major [15]): > 50%; inhibition (Leishmania major [16]): Active; inhibition (Leishmania donovani [17]): inactive; Activity (Leishmania major [18]): inactive; Activity (Leishmania donovani [19]): inactive; Activity (Leishmania donovani [20]): inactive; Activity (Leishmania major [21]): Active; inhibition at 30 µM (Leishmania major [22]): 95%; Ratio EC50 [23]: 100
4 | CCCCCCCCCCCCCCCCOP(=O)([O-])OCC[N+](C)(C)C [MILTEFOSINE] | 4.78 | 5.18 | 4.97 | 6.06 | 2.5 | 30.5 | 4.57 | 
5 | C[C@@H]1[C@H](O)[C@@H](C)/C=C/C=C/C=C/C=C/C=C/C=C/C=C/[C@H](O[C@@H]2O[C@H](C)[C@@H](O)[C@H](N)[C@@H]2O)C[C@@H]2O[C@](O)(C[C@@H](O)C[C@@H](O)[C@H](O)CC[C@@H](O)C[C@@H](O)CC(=O)O[C@H]1C)C[C@H](O)[C@H]2C(=O)O [AMPHOTERICIN B] | 6.49 | 6.68 | 6.62 | 6.55 | 59.7 | 51.1 | 4.84 | 

More lines, main results first:

Row | pEC50 (Leishmania major [1]) | pEC50 (Leishmania donovani [2]) | pEC50 (Leishmania major [3]) | pEC50 (Leishmania donovani [4]) | Compound | selectivity ratio [5] | selectivity ratio [6] | pEC50 (THP-1) | further results
6 | 6.72 | 4.63 | 5.65 | 4.68 | c1c[n+]2ccc1NCCOCCNc1cc[n+](cc1)CCOCC2 | 57.2 | 6.2 | 3.89 | 
7 | 6.77 | 4.58 | 6.01 | 4.42 | c1cc2ccc1CNc1cc[n+](cc1)CCCCC[n+]1ccc(cc1)NC2 | 170 | 4.3 | 3.78 | 
8 | 5.22 | 4.47 | 5.06 | 5.05 | c1cc2cc(c1)CNc1cc[n+](cc1)CCOCC[n+]1ccc(cc1)NC2 | 22.5 |  | 3.71 | 
9 | 6.59 | 4.50 | 5.66 | 4.89 | c1c[n+]2ccc1NCCCCCNc1cc[n+](cc1)CCOCC2 | 98.5 | 16.6 | 3.67 | 
10 | 4.58 | 4.11 | 4.77 | 4.20 | c1cc2ccc1CNc1cc[n+](cc1)CCOCC[n+]1ccc(cc1)NC2 | 12.9 | 3.5 | 3.65 | 
11 | 4.77 | 4.28 | 5.23 | 4.87 | c1cc2cc(c1)CNc1cc[n+](cc1)CCCCC[n+]1ccc(cc1)NC2 | 32.3 | 14.2 | 3.72 | 
